# Literature values in patent US20230392217A1 (priority 2020, published 2023).
# Where two headings read alike, the source gives them in different places.
# Key:
# [1] = test system: methicillin-sensitive S. aureus (MSSA); details: cited from earlier work
# [2] = test system: methicillin-resistant S. aureus (MRSA); details: cited from earlier work
compound,measurement,setting,value
"CN[C@H](CC(C)C)C(=O)N[C@H]1C(=O)N[C@@H](CC(N)=O)C(=O)N[C@H]2C(=O)N[C@H]3C(=O)N[C@H](C(=O)N[C@H](C(=O)O)c4cc(O)cc(O)c4-c4cc3ccc4O)[C@H](O)c3ccc(c(Cl)c3)Oc3cc2cc(c3O[C@@H]2O[C@H](CO)[C@@H](O)[C@H](O)[C@H]2O[C@H]2C[C@](C)(N)[C@H](O)[C@H](C)O2)Oc2ccc(cc2Cl)[C@H]1O [Vancomycin, vancomycin]",antibiotic susceptibility/resistance,[1]; strain MSSA #1,Susceptible
same,antibiotic susceptibility/resistance,[1]; strain MSSA #2,Susceptible
same,antibiotic susceptibility/resistance,[1]; strain MSSA #3,Susceptible
same,antibiotic susceptibility/resistance,[1]; strain MSSA #4,Susceptible
same,antibiotic susceptibility/resistance,[1]; strain MSSA #5,Susceptible
same,antibiotic susceptibility/resistance,[1]; strain MSSA #6,Susceptible
same,antibiotic susceptibility/resistance,[1]; strain MSSA #7,Susceptible
same,antibiotic susceptibility/resistance,[1]; strain MSSA #8,Susceptible
same,antibiotic susceptibility/resistance,[1]; strain MSSA #9,Susceptible
same,antibiotic susceptibility/resistance,[1]; strain MSSA #10,Susceptible
same,antibiotic susceptibility/resistance,[1]; strain MSSA #11,Susceptible
same,antibiotic susceptibility/resistance,[1]; strain MSSA #12,Susceptible
same,antibiotic susceptibility/resistance,[1]; strain MSSA #13,Susceptible
same,antibiotic susceptibility/resistance,[1]; strain MSSA #14,Susceptible
same,antibiotic susceptibility/resistance,[1]; strain MSSA #15,Susceptible
same,antibiotic susceptibility/resistance,[1]; strain MSSA #16,Susceptible
same,antibiotic susceptibility/resistance,[1]; strain MSSA #17,Susceptible
same,antibiotic susceptibility/resistance,[1]; strain MSSA #18,Susceptible
same,antibiotic susceptibility/resistance,[1]; strain MSSA #19,Susceptible
same,antibiotic susceptibility/resistance,[1]; strain MSSA #20,Susceptible
same,antibiotic susceptibility/resistance,[2]; strain MRSA #1,Susceptible
same,antibiotic susceptibility/resistance,[2]; strain MRSA #2,Susceptible
same,antibiotic susceptibility/resistance,[2]; strain MRSA #3,Susceptible
same,antibiotic susceptibility/resistance,[2]; strain MRSA #4,Susceptible
same,antibiotic susceptibility/resistance,[2]; strain MRSA #5,Susceptible
same,antibiotic susceptibility/resistance,[2]; strain MRSA #6,Susceptible
same,antibiotic susceptibility/resistance,[2]; strain MRSA #7,Susceptible
same,antibiotic susceptibility/resistance,[2]; strain MRSA #8,Susceptible
same,antibiotic susceptibility/resistance,[2]; strain MRSA #9,Susceptible
same,antibiotic susceptibility/resistance,[2]; strain MRSA #10,Susceptible
same,antibiotic susceptibility/resistance,[2]; strain MRSA #11,Susceptible
same,antibiotic susceptibility/resistance,[2]; strain MRSA #12,Susceptible
same,antibiotic susceptibility/resistance,[2]; strain MRSA #13,Susceptible
same,antibiotic susceptibility/resistance,[2]; strain MRSA #14,Susceptible
same,antibiotic susceptibility/resistance,[2]; strain MRSA #15,Susceptible
same,antibiotic susceptibility/resistance,[2]; strain MRSA #16,Susceptible
same,antibiotic susceptibility/resistance,[2]; strain MRSA #17,Susceptible
same,antibiotic susceptibility/resistance,[2]; strain MRSA #18,Susceptible
same,antibiotic susceptibility/resistance,[2]; strain MRSA #19,Susceptible
same,antibiotic susceptibility/resistance,[2]; strain MRSA #20,Resistant
same,antibiotic susceptibility/resistance,[2]; strain MRSA #21,Susceptible
same,antibiotic susceptibility/resistance,[2]; strain MRSA #22,Susceptible
same,antibiotic susceptibility/resistance,[2]; strain MRSA #23,Susceptible
same,antibiotic susceptibility/resistance,[2]; strain MRSA #24,Susceptible
same,antibiotic susceptibility/resistance,[2]; strain MRSA #25,Susceptible
same,antibiotic susceptibility/resistance,[2]; strain MRSA #26,Susceptible
same,antibiotic susceptibility/resistance,[2]; strain MRSA #27,Susceptible
same,antibiotic susceptibility/resistance,[2]; strain MRSA #28,Susceptible
same,antibiotic susceptibility/resistance,[2]; strain MRSA #29,Susceptible
same,antibiotic susceptibility/resistance,[2]; strain MRSA #30,Resistant
"COc1cccc(OC)c1C(=O)N[C@@H]1C(=O)N2[C@@H]1SC(C)(C)[C@@H]2C(=O)O [Methicillin, methicillin]",antibiotic susceptibility/resistance,[1]; strain MSSA #1,Susceptible
same,antibiotic susceptibility/resistance,[1]; strain MSSA #2,Susceptible
same,antibiotic susceptibility/resistance,[1]; strain MSSA #3,Susceptible
same,antibiotic susceptibility/resistance,[1]; strain MSSA #4,Susceptible
same,antibiotic susceptibility/resistance,[1]; strain MSSA #5,Susceptible
same,antibiotic susceptibility/resistance,[1]; strain MSSA #6,Susceptible
same,antibiotic susceptibility/resistance,[1]; strain MSSA #7,Susceptible
same,antibiotic susceptibility/resistance,[1]; strain MSSA #8,Susceptible
same,antibiotic susceptibility/resistance,[1]; strain MSSA #9,Susceptible
same,antibiotic susceptibility/resistance,[1]; strain MSSA #10,Susceptible
same,antibiotic susceptibility/resistance,[1]; strain MSSA #11,Susceptible
same,antibiotic susceptibility/resistance,[1]; strain MSSA #12,Susceptible
same,antibiotic susceptibility/resistance,[1]; strain MSSA #13,Susceptible
same,antibiotic susceptibility/resistance,[1]; strain MSSA #14,Susceptible
same,antibiotic susceptibility/resistance,[1]; strain MSSA #15,Susceptible
same,antibiotic susceptibility/resistance,[1]; strain MSSA #16,Susceptible
same,antibiotic susceptibility/resistance,[1]; strain MSSA #17,Susceptible
same,antibiotic susceptibility/resistance,[1]; strain MSSA #18,Susceptible
same,antibiotic susceptibility/resistance,[1]; strain MSSA #19,Susceptible
same,antibiotic susceptibility/resistance,[1]; strain MSSA #20,Susceptible
same,antibiotic susceptibility/resistance,[2]; strain MRSA #1,Resistant
same,antibiotic susceptibility/resistance,[2]; strain MRSA #2,Resistant
same,antibiotic susceptibility/resistance,[2]; strain MRSA #3,Resistant
same,antibiotic susceptibility/resistance,[2]; strain MRSA #4,Resistant
same,antibiotic susceptibility/resistance,[2]; strain MRSA #5,Resistant
same,antibiotic susceptibility/resistance,[2]; strain MRSA #6,Resistant
same,antibiotic susceptibility/resistance,[2]; strain MRSA #7,Resistant
same,antibiotic susceptibility/resistance,[2]; strain MRSA #8,Resistant
same,antibiotic susceptibility/resistance,[2]; strain MRSA #9,Resistant
same,antibiotic susceptibility/resistance,[2]; strain MRSA #10,Resistant
same,antibiotic susceptibility/resistance,[2]; strain MRSA #11,Resistant
same,antibiotic susceptibility/resistance,[2]; strain MRSA #12,Resistant
same,antibiotic susceptibility/resistance,[2]; strain MRSA #13,Resistant
same,antibiotic susceptibility/resistance,[2]; strain MRSA #14,Resistant
same,antibiotic susceptibility/resistance,[2]; strain MRSA #15,Resistant
same,antibiotic susceptibility/resistance,[2]; strain MRSA #16,Resistant
same,antibiotic susceptibility/resistance,[2]; strain MRSA #17,Resistant
same,antibiotic susceptibility/resistance,[2]; strain MRSA #18,Resistant
same,antibiotic susceptibility/resistance,[2]; strain MRSA #19,Resistant
same,antibiotic susceptibility/resistance,[2]; strain MRSA #20,Resistant
same,antibiotic susceptibility/resistance,[2]; strain MRSA #21,Resistant
same,antibiotic susceptibility/resistance,[2]; strain MRSA #22,Resistant
same,antibiotic susceptibility/resistance,[2]; strain MRSA #23,Resistant
same,antibiotic susceptibility/resistance,[2]; strain MRSA #24,Susceptible
same,antibiotic susceptibility/resistance,[2]; strain MRSA #25,Resistant
same,antibiotic susceptibility/resistance,[2]; strain MRSA #26,Resistant
same,antibiotic susceptibility/resistance,[2]; strain MRSA #27,Resistant
same,antibiotic susceptibility/resistance,[2]; strain MRSA #28,Resistant
same,antibiotic susceptibility/resistance,[2]; strain MRSA #29,Resistant
same,antibiotic susceptibility/resistance,[2]; strain MRSA #30,Resistant
